US20090188860A1, “Use of antimicrobials in water technology” (priority 2006, published 2009)

Test system: bacteria
Experiment: bacterial presence in permeate and on membrane of a reverse osmosis module in a desalination process
Details: cellulose acetate membranes cast with 0.5% and 2.0% by weight of the antimicrobial agent, after a one month period of operation
Procedure: Cellulose acetate membranes were cast from a dope solution containing about 20% of a cellulose di- and -tri-acetate mixture and 0.5% and 2.0% by weight, respectively, of the antimicrobial agent of formula (3). The solvent is a mixture of dioxane and acetone (2:1; w/w).
Further, the cellulose acetate membranes were used in a reverse osmosis module in a desalination process.
The reverse osmosis module was tested to determine any bacterial presence in the permeate.

Oc1cc(Cl)ccc1Oc1ccc(Cl)cc1 [formula (3), 4,4′-dichloro-2-hydroxydiphenylether]
bacterial presence in the permeate and on the membrane: no bacteria could be found
